Three molecules from US20260048040A1, “MTA-COOPERATIVE PRMT5 INHIBITORS FOR USE IN THE TREATMENT OF CANCER” (ASTRAZENECA AB, priority 2022, published 2026) can be followed below.

In data set [1] the test system is MTAP knock out (KO) HCT116 cells. Put plainly: Proliferation assay, HCT116 MTAP knock out cells (Alamar Blue). The data set is classed as cell-based. The conditions noted are these: Homo sapiens, HCT-116; HCT116, MTAP status KO, MTAP mRNA level low; average values from two or more experiments. Here is the method: (§1) For the HCT116 isogenic cell line (the parental model purchased from ATCC, the MTAP KO clone generated in-house using CRISPR technology): Cells were harvested to a density of 400 cells per well (McCoys 5A+10% FCS+1% Glutamax), 40 μl/well seeded into 384-well plates (Greiner, Kremsmunster, Austria; 781090) using a Multidrop Combi. For Day 0 plates immediately add 4 μl Alamar Blue reagent (Thermo; DAL1100) using a multidrop combi and incubate for 3 h at 37° C., 5% CO2. Day 0 cell plates were measured using Envision plate reader with fluorescence excitation wavelength of 540-570 nm (peak excitation is 570 nm), fluorescence emission at 580-610 nm (peak emission is 585 nm). Test compounds were added using an Echo 555 and placed in incubator at 37° C., 5% CO2 and incubated for 4 more days. […], add 4 μl Alamar Blue reagent using a Multidrop Combi and incubate for 3 h at 37° C., 5% CO2. Day 4 cell plates were measured using EnVision plate reader with fluorescence excitation wavelength of 540-570 nm, fluorescence emission at 580-610 nm. The rate of proliferation (IC50 values) was determined using Genedata screener software by assessing the total cell number from the Envision plate reader for Day 0 and Day 4 plates.

The next data set deals with L540 cells. Put plainly: Proliferation assay, L540 Hodgkin Lymphoma cells (CellTiter Glo). The conditions noted are these: Homo sapiens. In kind it is cell-based. On the procedure:
(§2) For the Hodgkin Lymphoma cell lines L428, L540, L1236, HDLM2 and KM-H2 (purchased from DSMZ, http://www.dsmz.de): Assay Ready Plates were prepared by adding compounds to 384-well plates (Corning #3712) using Echo Liquid Handler. On day 0, 1200 cells/well of L428, L540, or KMH2 cells in 60 μl of growth media (RPMI1640+10% FBS+1% L-Glu+1% P/S) were dispensed into the Assay Ready Plates, 10 μM as final top concentration, with 1:3 dilution, and 10 doses total. The same volume was also dispensed into 1 empty plate for Day 0 control plate. 30 μl/well of CellTiter Glo reagent (Promega #7573) was added into Day 0 plate, incubate at room temperature for 20 min in dark, Measure luminescence on plate reader Tecan M200 using 100 ms integration time, Oms attenuation and settle times. The assay plates were incubated for 7 days in incubator with 37° C., 90% humidity, 5% CO2. Luminescence was measured as Day 0 control plate. IC50 was calculated using GraphPad Prism 8 with Nonlinear regression (curve fit) analysis.

For a further data set, the system named is HDLM2 cells. Put plainly: Proliferation assay, HDLM2 Hodgkin Lymphoma cells (CellTiter Glo). The data set is classed as cell-based. The conditions noted are these: Homo sapiens. On the procedure: as §2
Alternatively, for HDLM2 (purchased from DSMZ): Cells were grown as […] cells in growth media (phenol red free RPMI+10% FCS+2 mM glutamine). Cells were seeded into 96-well clear-bottomed black tissue-culture treated plates at 1000 cells/well in 90 μl growth media and placed in an incubator at 37° C., 5% CO2. Compound was obtained in solution from the liquid bank at a concentration of 10 mM in DMSO then half-log serial dilutions performed in DMSO to make ×1000 fold stock solutions. Concentrations were then diluted 1 in 10 in DMSO followed by 1 in 10 in growth media to give an addition plate at x^10 final concentration in 10% DMSO. 10 μl compound was then added to 90 μl cell (1 in 10 dilution) to give a concentration range of 0.1 nM to 10 μM in 1% DMSO. CellTiter Glo readings were taken at the point of dosing and at 6 days. […] Read luminescence on Envision F (ultrasensitive luminescence 96-well protocol with 384 well aperture). IC50 was calculated using GraphPad Prism 8 with Nonlinear regression (curve fit) analysis.
On the technique in general: In ATP-based viability assays light output follows the ATP content of the culture.

Another data set concerns L428 cells. Put plainly: Proliferation assay, L428 Hodgkin Lymphoma cells (CellTiter Glo). In kind it is cell-based. The conditions noted are these: Homo sapiens. Here is the method:
as §2

In data set [2] the test system is wild type (wt) HCT116 cells. The experiment in a line: Proliferation assay, HCT116 wild type cells (Alamar Blue). Conditions: Homo sapiens, HCT-116; HCT116, MTAP status wt, MTAP mRNA level high; average values from two or more experiments. In kind it is cell-based. Here is the method:
as §1
On the technique in general: The colour change of resazurin is a common sign of viable cells or microbes.

The next data set has as its system L1236 cells. The experiment in a line: Proliferation assay, L1236 Hodgkin Lymphoma cells (CellTiter Glo). In kind it is cell-based. On the procedure: as §2
The test system of data set [3] is SDMA (marker of target engagement). Put plainly: Pharmacodynamic analysis: SDMA western blot in L540 xenograft tumors. The data set is classed as in vivo, Mouse (Mus Musculus). Conditions: tumors collected 6 h after last dose on day 21, western blot normalized to vinculin. Here is the method: (§3) This study was performed to evaluate tumor growth inhibition and pharmacodynamic changes following treatment with the MTA synergistic PRMT5 inhibitor Compound C in the MTAP silenced L540 HL xenograft model. Three doses of Compound C (Dose Level 1, Dose Level 2 and Dose Level 3) were tested. Pharmacodynamic changes were assessed by western blot for a decrease in SDMA (marker of target engagement) following treatment with Compound C.
(§4) Control animals were dosed with vehicle (5% v/v DMSO/20% v/v Kolliphor HS15/75% v/v purified water (pH 3.0-3.2)) PO, and vehicle and Compound C treated animals were dosed according to Table 6. Dosing was initiated 1 day upon selection and randomization. On day 21 of dosing, all animals from each received the last dose in the morning. Mice were necropsied 6 h later and flash frozen tumors were collected for PD analysis.
To determine levels of protein of interest in tumor samples, snap frozen tumor fragments at the end of the PD study were used and protein extracted by adding 600-1000 μl lysis buffer for small and large tumors, respectively. […] Lysates were transferred to a deepwell plate, and protein in the supernatant measured using BCA normalisation method (Thermofisher, #23225). […] The membranes were washed three times for 15 minutes each in 20 ml of TBST, and signal was detected using chemiluminescent SuperSignal West Dura extended duration substrate (Thermofisher, #34075) and quantified using Syngene software. The 30 kDa molecular weight band of PRMT5's substrate, SDMA, was quantified using Syngene software. The 110 kDa molecular weight band of vinculin was also quantified. […]
Primary analysis was carried out using Excel, where raw data was firstly normalised to vinculin, secondly to the geomean of vehicle control and then multiplied by 100. […] Significant p-values, if any, obtained from the ANOVA test, were quantified using GraphPad Prism 8.4.3.

Data set [4] deals with MTAP silenced L540 HL xenograft. Put plainly: Tumor growth inhibition in L540 HL xenograft model. The data set is classed as in vivo, Mouse (Mus Musculus). The conditions noted are these: for TGI (%): 21 days of dosing, TGI measured day 21 (end of treatment), NOD/SCID mice. On the procedure: as §3
Xenografts were established by subcutaneous (SC) injection of 5×10^e6 cells suspended in 0.1 mL of PBS into the right front flank of 6-to 8-week-old animals. Tumors were allowed to reach 100-200 mm^3 before randomization. Tumors were measured by calliper and the volumes of tumors were calculated using the following formula: Volume (mm3)=(Tumor Length)×(Tumor width)×(Tumor width)/2 Tumor length (the longest tumor dimension); Tumor width (the longest tumor dimension perpendicular to length).
Animals were randomized into groups based on the size of the tumor. Randomization was performed based on “Matched distribution” method (StudyDirector™ software, version 3.1.399.19). The date of randomization is denoted as Day 0. There were no animal substitutions.
as §4
(§5) • Tumors were measured twice weekly by caliper, and the volumes of tumors were calculated using the formula: Volume (mm^3)=(Tumor Length)×(Tumor width)×(Tumor width)/2 • Relative tumor volume (RTV) was calculated using the formula: RTV for day X=(Tumour volume on day X)/(Tumour volume on day 0) • The anti-cancer effect of Compound C was expressed as percent of tumor growth inhibition (TGI) calculated on last day of the study using the formula: • Percentage TGI on day X for treatment group=(((Geomean RTV Vehicle day X)−(Geomean RTV Treatment group day X))/((Geomean RTV Vehicle on day X)−1)×100 • Animals were weighted daily for the dosing phase and twice weekly for all other phases. Percentage of body weight change was calculated using the formula: Percentage body weight change on day X=(((Body weight day X)−(Body weight day of select)×100))
Tumor volumes were plotted as geometric means with SEM. Percentage of body weight change was plotted as means with SEM. Significant p-values for TGI relative to vehicle treated controls (relative tumor volumes) at the last day of treatment, were obtained from a Mann-Whitney one-tailed test, and calculated by GraphPad Prism 8.4.3

Data set [5] in a line: Tolerability / body weight in L540 HL xenograft model. In kind it is in vivo, Mouse (Mus Musculus). Conditions: all doses tested, PO, 21 days. On the procedure: as §4, §5
Tumor volumes were plotted as geometric means with SEM. Percentage of body weight change was plotted as means with SEM. […]

The mark [6] stands for this setting: L-540, L540, MTAP status wt, MTAP mRNA level low, average values from two or more experiments, read-out: IC50, proliferation.
Where [7] appears, read: HDLM-2, HDLM2, MTAP status wt, MTAP mRNA level low, average values from two or more experiments, read-out: IC50, proliferation.
Where [8] appears, read: L-428, L428, MTAP status wt, MTAP mRNA level high, average values from two or more experiments, read-out: IC50, proliferation.
The mark [9] stands for this setting: L-1236, L1236, MTAP status wt, MTAP mRNA level low, average values from two or more experiments, read-out: IC50, proliferation.

Like-named read-outs stand apart in the source and are kept apart here. Some results are limits rather than exact numbers.

On to `Nc1nc2cc(CN3C(=O)c4cc(F)ccc4[C@]34CCN(Cc3ccc(F)cc3)C4=O)[nH]c2cc1F` [Compound A, (S)-2-((5-Amino-6-fluoro-1H-pyrrolo[3,2-b]pyridin-2-yl)methyl)-5-fluoro-1′-(4-fluorobenzyl)spiro[isoindoline-1,3′-pyrrolidine]-2′,3-dione], for which the IC50 was 158 nM in [1]; 247 nM with L540 cells (setting [6]); 39 nM in the data set with HDLM2 cells (setting [7]); 2520 nM in the data set with L428 cells (setting [8]); over 20000 nM in [2]; 67 nM in the data set on L1236 cells (setting [9]).

On to `CC#CCN1CC[C@@]2(C1=O)c1ccc(F)cc1C(=O)N2Cc1cc2nc(N)c(F)cc2[nH]1` [Compound C, (S)-2-((5-Amino-6-fluoro-1H-pyrrolo[3,2-b]pyridin-2-yl)methyl)-1′-(but-2-yn-1-yl)-5-fluorospiro[isoindoline-1,3′-pyrrolidine]-2′,3-dione], for which the IC50 in data set [1] was 170 nM; with L540 cells (L-540, read-out: IC50, proliferation), 252 nM; with HDLM2 cells (HDLM-2, read-out: IC50, proliferation) it was 827 nM; in the data set on L428 cells (L-428, read-out: IC50, proliferation) it was 4640 nM; in [2] it was 8540 nM; in the data set on L1236 cells (L-1236, read-out: IC50, proliferation) it was 77 nM. Further, the “Percentage Inhibition of SDMA” value in [3] (Dose Level 1, PO) is 83.9%; in data set [3] (Dose Level 2, PO), 97.6%; in data set [3] (Dose Level 3, PO), 99.1%. For the same molecule, the “TGI (%)” value was 22% in data set [4] (Dose Level 1, PO); 52% in data set [4] (Dose Level 2, PO); 93% in [4] (Dose Level 3, PO). Moreover, in data set [4] (Dose Levels 1-3, PO, L540 HL xenograft), the “Inhibition of tumour growth in vivo (in words)” value is “dose-dependent efficacy”. Also, the “Body weight loss during the treatment period compared to vehicle-treated group” value in data set [5] is “no significant body weight loss”. In data set [5], the Tolerability result was “well tolerated”.

As for `CC(=O)N1CCC(Nc2cc(C(=O)NC[C@H](O)CN3CCc4ccccc4C3)ncn2)CC1` [Compound B, reference compound], the IC50 came to 74 nM in data set [1]; 157 nM in the data set with L540 cells (setting [6]); 93 nM with HDLM2 cells (setting [7]); 583 nM with L428 cells (setting [8]); 75 nM in data set [2]; 14 nM in the data set with L1236 cells (setting [9]).
